Laboratory results published in US20160220569A1, “CDK4/6 Inhibitor Dosage Formulations For The Protection Of Hematopoietic Stem And Progenitor Cells During Chemotherapy” (G1 Therapeutics, Inc., priority 2015, published 2016).
Where “and” joins values, the source holds several entries; their conditions need not be identical. Equal entries are not always repeated. Where two headings read alike, the source gives them in different places.

What was measured:
Target lesions = assay: Tumor response, Compound 1 with topotecan; format: in vivo, human; conditions: for Cycle 2 Target Lesion Sum: individual subjects
Description: In Cohort 2 there were 3 subjects who received 1.25 mg/m^2 of topotecan once daily on Days 1 to 5. In Cohort 3 there were 4 subjects who received 0.75 mg/m^2 of topotecan once daily on Days 1 to 5. […] Target lesions were summed and response tabulated as follows: […]

[1] = Repeat-dose toxicity in rats (IV 7 days, oral 14 days); format: in vivo
Description: The magnitude and/or duration of this effect differed among cell lineages but was dose-related in all lineages. Effects on hematopoiesis were readily monitored by peripheral blood cell counts and were reversible when dosing stopped.
In both species, the toxicity profile was similar and the repeat-dose toxicity studies identified no observed adverse effect levels (NOAELs). […] This IV NOAEL was the basis for selecting a starting dose of 6 mg/m^2 for the first clinical trial, which is 1/10th of the lowest safe dose level in any animal study.
In rats, the toxicity profile with oral administration was similar to that with IV administration, except that pulmonary macrophage accumulation occurred with oral administration for 14 days at ≧5 mg/kg (≧30 mg/m^2) but not with IV administration for 7 days at up to 25 mg/kg (≧150 mg/m^2). Based on this finding, the oral NOAEL was 2 mg/kg (≧12 mg/m^2).

CDK4/6 = CDK4/6 inhibition in vitro and in vivo studies
[2] = 3-compartment model pharmacokinetic analysis, Cohorts 5 and 6; format: in vivo, human; conditions: for half-life: read-out: γ phase half-life averaged (converted)
From the text: The concentration-time profile is represented by a tri-exponential equation similar to the following: […]
Where A, B, and C are the ‘macroconstants’ which are a function of the dose, volume of distribution and the ‘microconstants’ (K12, K21, K13, K31, and K10).
Five of these parameters are rate constants and the 6th is the volume of distribution of the central compartment (V1).

[3] = Compound 1 PK dosed Days 1-5 with topotecan; format: in vivo, human; conditions: for pre-dose concentration averaging: Day 4, mean; for AUC(0-inf) / Cmax / half-life: human, plasma, intravenous; for AUC(0-inf): read-out: AUCinf; for Cmax: read-out: Cmax; for half-life: read-out: t½ (converted)
Description: Analysis of plasma concentration versus time data for calculation of standard pharmacokinetic (PK) parameters following intravenous infusion administration was conducted using Phoenix WinNonlin version 6.3 using a nominal infusion duration and scheduled blood sampling times.

[4] = Compound 1 200 mg/m^2 with topotecan, 2 to 4 cycles
[5] = Cohort 5, 96 mg/m^2, 3-compartment primary parameter, subjects 1-6, Mean, Median, mean
[6] = 200 mg/m^2 with Topotecan 0.75 mg/m^2 (Cohort 3), Day 1, Max
[7] = 200 mg/m^2 with Topotecan 0.75 mg/m^2 (Cohort 3), Day 1, individual subjects
[8] = 200 mg/m^2 with Topotecan 1.25 mg/m^2 (Cohort 2), Day 1, Max
[9] = 200 mg/m^2 with Topotecan 1.25 mg/m^2 (Cohort 2), Day 1, Min
[10] = 200 mg/m^2 with Topotecan 1.25 mg/m^2 (Cohort 2), Day 1, individual subjects
[11] = 200 mg/m^2 with Topotecan […]^2 (Cohort 1), Day 1, Max
[12] = 200 mg/m^2 with Topotecan […]^2 (Cohort 1), Day 1, individual subjects
[13] = 200 mg/m^2 with Topotecan 0.75 mg/m^2 (Cohort 3), Day 1, Geo. Mean
[14] = 200 mg/m^2 with Topotecan 0.75 mg/m^2 (Cohort 3), Day 1, Mean
[15] = 200 mg/m^2 with Topotecan 0.75 mg/m^2 (Cohort 3), Day 1, Median
[16] = 200 mg/m^2 with Topotecan 0.75 mg/m^2 (Cohort 3), Day 4, Geometric Mean
[17] = 200 mg/m^2 with Topotecan 0.75 mg/m^2 (Cohort 3), Day 4, Mean
[18] = 200 mg/m^2 with Topotecan 0.75 mg/m^2 (Cohort 3), Day 4, Median

CN1CCN(c2ccc(Nc3ncc4cc5n(c4n3)C3(CCCCC3)CNC5=O)nc2)CC1 [Compound 1, 2′-((5-(4-methylpiperazin-1-yl)pyridin-2-yl)amino)-7′,8′-dihydro-6′H-spiro[cyclohexane-1,9′-pyrazino[1′,2′:1,5]pyrrolo[2,3-d]pyrimidin]-6′-one]
Cycle 2 Target Lesion Sum (Target lesions; Compound 1 200 mg/m^2 followed by 1.25 mg/m^2 Topotecan): 22 and 123 | Cycle 2 Target Lesion Sum (Target lesions; Compound 1 200 mg/m^2 followed by .75 mg/m^2 Topotecan): 157 | subjects with partial responses (Target lesions; [4]): 3 subjects | subjects with stable disease (Target lesions; [4]): 3 subjects | dose with clinically significant leukopenia ([1]; 7 days): ≥ 150 mg/m^2 | dose with pulmonary macrophage accumulation ([1]; oral administration for 14 days): ≥ 5 mg/kg | NOAEL at 7 days ([1]; rat, in vivo, IV, read-out: NOAEL for IV administration): 10 mg/kg | NOAEL at 14 days ([1]; rat, in vivo, oral): 2 mg/kg | CDK4/6 inhibitor characterisation (CDK4/6): highly potent and selective CDK4/6 inhibitor | Beta [2, 5]: 0.388 h⁻¹ | Gamma [2, 5]: 0.0502 h⁻¹ | K31 [2, 5]: 0.0692 h⁻¹ | Cmax ([2]; both sexes, human, plasma, intravenous, 96 mg/m2, Cohort 5, 96 mg/m^2, 3-compartment secondary (derived) parameter, six subjects, Mean, Median, read-out: Cmax): 991 ng/mL | half-life ([2]; both sexes, human, plasma, intravenous, 96 mg/m2, 96 mg/m^2, 3-compartment model, mean): 14.2 h | half-life ([2]; both, human, plasma, intravenous, […]2): 14 h | AUC24.5 [3, 6]: 2540 ng·h/mL | AUCinf [3, 6]: 2660 ng·h/mL | t½ [3, 6]: 9.24 h | t½ ([3]; 200 mg/m^2 with Topotecan 0.75 mg/m^2 (Cohort 3), Day 1, Min): 6.64 h | AUC24.5 [3, 7]: 2540 ng·h/mL | AUCinf [3, 7]: 2240 ng·h/mL and 2660 ng·h/mL | t½ [3, 7]: 6.64 h and 9.24 h and 6.69 h | t½ ([3]; 200 mg/m^2 with Topotecan 0.75 mg/m^2 (Cohort 3), Day 4, Min): 6.87 h | t½ ([3]; 200 mg/m^2 with Topotecan 0.75 mg/m^2 (Cohort 3), Day 4, individual subjects): 9.54 h and 6.87 h | AUC24.5 [3, 8]: 2450 ng·h/mL | AUCinf [3, 8]: 2720 ng·h/mL | AUC24.5 [3, 9]: 2130 ng·h/mL | t½ [3, 9]: 6.14 h | AUC24.5 [3, 10]: 2450 ng·h/mL and 2130 ng·h/mL | AUCinf [3, 10]: 2720 ng·h/mL and 2430 ng·h/mL | t½ ([3]; 200 mg/m^2 with Topotecan 1.25 mg/m^2 (Cohort 2), Day 4, Max): 10.6 h | t½ ([3]; 200 mg/m^2 with Topotecan 1.25 mg/m^2 (Cohort 2), Day 4, Min): 7.15 h | t½ ([3]; 200 mg/m^2 with Topotecan 1.25 mg/m^2 (Cohort 2), Day 4, individual subjects): 9.10 h and 10.6 h | AUCinf [3, 11]: 2430 ng·h/mL | t½ [3, 11]: 6.24 h | t½ ([3]; 200 mg/m^2 with Topotecan […]^2 (Cohort 1), Day 1, Min): 5.60 h | AUCinf [3, 12]: 2430 ng·h/mL | t½ [3, 12]: 6.24 h | t½ ([3]; 200 mg/m^2 with Topotecan […]^2 (Cohort 1), Day 4, Max): 9.15 h | t½ ([3]; 200 mg/m^2 with Topotecan […]^2 (Cohort 1), Day 4, Min): 6.96 h | t½ ([3]; 200 mg/m^2 with Topotecan […]^2 (Cohort 1), Day 4, individual subjects): 9.15 h | pre-dose concentration averaging ([3]; Cohort 2 (Topotecan 1.25 mg/m^2)): 33.3 ng/mL | pre-dose concentration averaging ([3]; Cohort 3 (Topotecan 0.75 mg/m^2)): 27.1 ng/mL | AUC(0-inf) [3, 13]: 2170 ng·h/mL | Cmax [3, 13]: 1060 ng/mL | half-life [3, 13]: 7.33 h | AUC(0-inf) [3, 14]: 2200 ng·h/mL | Cmax [3, 14]: 1140 ng/mL | half-life [3, 14]: 7.4 h | AUC(0-inf) [3, 15]: 2220 ng·h/mL | half-life [3, 15]: 6.85 h | half-life [3, 7]: 7.01 h | Cmax [3, 16]: 1200 ng/mL | half-life [3, 16]: 8.69 h | Cmax [3, 17]: 1330 ng/mL | half-life [3, 17]: 8.81 h | Cmax [3, 18]: 1590 ng/mL | half-life [3, 18]: 8.82 h
